Source: ChEMBL document CHEMBL3046118, “Coumarinyl pyrazole derivatives of INH: promising antimycobacterial agents” (Med Chem Res, 2013)
Converted amounts (≈) assume the structure as drawn.

Test system: Mycobacterium tuberculosis
Assay: Antimycobacterial activity against Mycobacterium tuberculosis H37Rv assessed as growth inhibition after 6 days by resazurin MIC assay
Format: functional, organism-based
Conditions: for IC50 / IC90 / MIC: Mycobacterium tuberculosis, H37Rv, 144 h

Compound: O=C(c1ccncc1)n1nc(-c2ccccc2[N+](=O)[O-])cc1-c1cc2ccccc2oc1=O
- growth inhibition (GI): 67.83%
- IC50: 1.9 µg/mL (≈ 4.33 µM)
- IC90: 2.74 µg/mL (≈ 6.25 µM)
- MIC: 2.5 µg/mL (≈ 5.7 µM)

Compound: O=C(c1ccncc1)n1nc(-c2ccc(O)cc2)cc1-c1cc2ccccc2oc1=O
- growth inhibition (GI): 69.91%
- IC50: 1.51 µg/mL (≈ 3.69 µM)
- IC90: 2.85 µg/mL (≈ 6.96 µM)
- MIC: 2.5 µg/mL (≈ 6.11 µM)

Compound: O=C(c1ccncc1)n1nc(-c2ccccc2)cc1-c1cc2ccccc2oc1=O
- growth inhibition (GI): 73.53%
- IC50: 1.92 µg/mL (≈ 4.88 µM)
- IC90: 2.26 µg/mL (≈ 5.74 µM)
- MIC: 2.5 µg/mL (≈ 6.35 µM)

Compound: COc1ccc(-c2cc(-c3cc4ccccc4oc3=O)n(C(=O)c3ccncc3)n2)cc1
- growth inhibition (GI): 66.67%
- IC50: 1.21 µg/mL (≈ 2.86 µM)
- IC90: 1.35 µg/mL (≈ 3.19 µM)
- MIC: 2.5 µg/mL (≈ 5.9 µM)

Compound: O=C(c1ccncc1)n1nc(-c2ccc(Cl)cc2)cc1-c1cc2ccccc2oc1=O
- growth inhibition (GI): 75.39%
- IC50: 0.75 µg/mL (≈ 1.75 µM)
- IC90: 1.22 µg/mL (≈ 2.85 µM)
- MIC: 1.25 µg/mL (≈ 2.92 µM)

Compound: CN(C)c1ccc(-c2cc(-c3cc4ccccc4oc3=O)n(C(=O)c3ccncc3)n2)cc1
- growth inhibition (GI): 73.82%
- IC50: 1.21 µg/mL (≈ 2.77 µM)
- IC90: 2.3 µg/mL (≈ 5.27 µM)
- MIC: 2.5 µg/mL (≈ 5.73 µM)

Compound: O=C(c1ccncc1)n1nc(-c2ccc(Cl)cc2Cl)cc1-c1cc2ccccc2oc1=O
- growth inhibition (GI): 69.09%
- IC50: 0.74 µg/mL (≈ 1.6 µM)
- IC90: 1.46 µg/mL (≈ 3.16 µM)
- MIC: 1.25 µg/mL (≈ 2.7 µM)

Compound: O=C(c1ccncc1)n1nc(-c2cccc([N+](=O)[O-])c2)cc1-c1cc2ccccc2oc1=O
- growth inhibition (GI): 65.39%
- IC50: 0.89 µg/mL (≈ 2.03 µM)
- IC90: 1.67 µg/mL (≈ 3.81 µM)
- MIC: 1.25 µg/mL (≈ 2.85 µM)

Compound: Cc1ccc(-c2cc(-c3cc4ccccc4oc3=O)n(C(=O)c3ccncc3)n2)cc1
- growth inhibition (GI): 62.63%
- IC50: 2.46 µg/mL (≈ 6.04 µM)
- IC90: 2.69 µg/mL (≈ 6.6 µM)
- MIC: 5 µg/mL (≈ 12.3 µM)

Compound: COc1cccc(-c2cc(-c3cc4ccccc4oc3=O)n(C(=O)c3ccncc3)n2)c1
- growth inhibition (GI): 65.14%
- IC50: 1.17 µg/mL (≈ 2.76 µM)
- IC90: 1.29 µg/mL (≈ 3.05 µM)
- MIC: 1.25 µg/mL (≈ 2.95 µM)

Compound: O=C(c1ccncc1)n1nc(-c2ccc(F)cc2)cc1-c1cc2ccccc2oc1=O
- growth inhibition (GI): 80.09%
- IC50: 0.41 µg/mL (≈ 0.997 µM)
- IC90: 0.73 µg/mL (≈ 1.77 µM)
- MIC: 0.625 µg/mL (≈ 1.52 µM)

Compound: NNC(=O)c1ccncc1 [ISONIAZID]
- MIC: 0.06 µg/mL (≈ 0.438 µM)

Compound: CO[C@H]1/C=C/O[C@@]2(C)Oc3c(C)c(O)c4c(O)c(c(/C=N/N5CCN(C)CC5)c(O)c4c3C2=O)NC(=O)/C(C)=C\C=C\[C@H](C)[C@H](O)[C@@H](C)[C@@H](O)[C@@H](C)[C@H](OC(C)=O)[C@@H]1C [RIFAMPIN]
- MIC: 0.003 µg/mL (≈ 0.00365 µM)
